Measurements from patent publication US5359121A, “Glycine derivative monosodium salt tetrahydrate” (Ono Pharmaceutical Co., Ltd., priority 1991, dated 1994).

Tests used:
[1] = Experiment of hygroscopicity; format: physicochemical; settings: exposure to air / 25° C., humidity of 75%
Protocol: The hygroscopicity of each compound was measured by the ratio of its weight to lapse of time.

[2] = Toxicity

Row | Structure (SMILES) | hygroscopicity (result in words) ([1]; listed as the monosodium salt of the compound of the formula (II), monosodium salt) | hygroscopicity (result in words) ([1]; monosodium salt) | hygroscopicity (result in words) [1] | toxicity [2]
1 | CC(C)(C)C(=O)Oc1ccc(S(=O)(=O)Nc2ccccc2C(=O)NCC(=O)[O-])cc1.[Na+] [the comparison compound, N-[o-(p-pivaloyloxybenzenesulfonylamino)benzoyl]glycine monosodium salt] | hygroscopic | increased its weight with lapse of time | – | –
2 | CC(C)(C)C(=O)Oc1ccc(S(=O)(=O)Nc2ccccc2C(=O)NCC(=O)[O-])cc1.O.O.O.O.[Na+] [the present invention compound, N-[o-(p-pivaloyloxybenzenesulfonylamino)benzoyl]glycine monosodium salt tetrahydrate] | – | – | no change of its weight | very low
